{"source": "patent US5672715A", "about": "“Herbicidal substituted 3-aryl-pyrazoles” (Monsanto Company, priority 1995, dated 1997)", "assay_type_in_all_cases": "in vivo", "key": {"Morning Glory [1]": {"system": "Morning Glory", "assay": "pre-emergence herbicide test", "conditions": "Ipomoea, pre-emergence, 0.25 lb/A; read-out: % plant inhibition", "in_short": "(§1)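 Steps: compact topsoil in pan; place seeds; level-fill with cover soil; add a known amount of compound before or after covering; keep pans in greenhouse, bottom-watering as needed; rate % inhibition at about 14 days.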"}, "Rape [2]": {"system": "Rape", "assay": "pre-emergence herbicide test", "conditions": "pre-emergence, 0.25 lb/A; read-out: % plant inhibition", "in_short": "as §1"}, "Blackgrass [3]": {"system": "Blackgrass", "assay": "pre-emergence herbicide test", "conditions": "Alopecurus myosuroides, pre-emergence, 0.25 lb/A; read-out: % plant inhibition", "in_short": "as §1"}, "Seedling Johnsongrass [4]": {"system": "Seedling Johnsongrass", "assay": "pre-emergence herbicide test", "conditions": "Sorghum halepense, pre-emergence, 0.25 lb/A; read-out: % plant inhibition", "in_short": "as §1"}, "Cocklebur [5]": {"system": "Cocklebur", "assay": "pre-emergence herbicide test", "conditions": "Xanthium strumarium, pre-emergence, 0.25 lb/A; read-out: % plant inhibition", "in_short": "as §1"}, "Wild Oats [6]": {"system": "Wild Oats", "assay": "pre-emergence herbicide test", "conditions": "Avena fatua, pre-emergence, 0.25 lb/A; read-out: % plant inhibition", "in_short": "as §1"}, "Green Foxtail [7]": {"system": "Green Foxtail", "assay": "pre-emergence herbicide test", "conditions": "Setaria viridis, pre-emergence; 0.25 lb/A; read-out: % plant inhibition", "in_short": "as §1"}, "Giant Foxtail [8]": {"system": "Giant Foxtail", "assay": "pre-emergence herbicide test", "conditions": "Setaria faberi, pre-emergence, 0.25 lb/A; read-out: % plant inhibition", "in_short": "as §1"}, "Common Chickweed [9]": {"system": "Common Chickweed", "assay": "pre-emergence herbicide test", "conditions": "pre-emergence, 0.25 lb/A; read-out: % plant inhibition", "in_short": "as §1"}, "Birdseye Speedwell [10]": {"system": "Birdseye Speedwell", "assay": "pre-emergence herbicide test", "conditions": "pre-emergence, 0.25 lb/A; read-out: % plant inhibition", "in_short": "as §1"}, "Barnyardgrass [11]": {"system": "Barnyardgrass", "assay": "pre-emergence herbicide test", "conditions": "Echinochloa crus-galli, pre-emergence, 0.25 lb/A; read-out: % plant inhibition", "in_short": "as §1"}, "Wheat [12]": {"system": "Wheat", "assay": "pre-emergence herbicide test", "conditions": "Triticum aestivum, pre-emergence, 0.25 lb/A; read-out: % plant inhibition", "in_short": "as §1"}, "Soybean [13]": {"system": "Soybean", "assay": "pre-emergence herbicide test", "conditions": "Glycine max, pre-emergence, 0.25 lb/A; read-out: % plant inhibition", "in_short": "as §1"}, "Downy Brome [14]": {"system": "Downy Brome", "assay": "pre-emergence herbicide test", "conditions": "Bromus tectorum, pre-emergence, 0.25 lb/A; read-out: % plant inhibition", "in_short": "as §1"}, "Bedstraw Catchweed [15]": {"system": "Bedstraw Catchweed", "assay": "pre-emergence herbicide test", "conditions": "Galium aparine, pre-emergence, 0.25 lb/A; read-out: % plant inhibition", "in_short": "as §1"}, "Velvetleaf [16]": {"system": "Velvetleaf", "assay": "pre-emergence herbicide test", "conditions": "Abutilon theophrasti, pre-emergence, 0.25 lb/A; read-out: % plant inhibition", "in_short": "as §1"}, "Corn [17]": {"system": "Corn", "assay": "pre-emergence herbicide test", "conditions": "Zea mays, pre-emergence, 0.25 lb/A; read-out: % plant inhibition", "in_short": "as §1"}, "Morning Glory [18]": {"system": "Morning Glory", "assay": "post-emergence herbicide test", "conditions": "Ipomoea, post-emergence, 0.25 lb/A; read-out: % plant inhibition", "in_short": "(§2)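 Sown pans kept on a greenhouse bench with irrigation or subirrigation until plants reached two to three weeks, then sprayed at 170.3 kPa (10 psig). Spray mix held about 0.4% by volume emulsifier; total volume 1870 L/Ha. Result expressed as percent inhibition.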"}, "Rape [19]": {"system": "Rape", "assay": "post-emergence herbicide test", "conditions": "post-emergence, 0.25 lb/A; read-out: % plant inhibition", "in_short": "as §2"}, "Blackgrass [20]": {"system": "Blackgrass", "assay": "post-emergence herbicide test", "conditions": "Alopecurus myosuroides, post-emergence, 0.25 lb/A; read-out: % plant inhibition", "in_short": "as §2"}, "Seedling Johnsongrass [21]": {"system": "Seedling Johnsongrass", "assay": "post-emergence herbicide test", "conditions": "Sorghum halepense, post-emergence, 0.25 lb/A; read-out: % plant inhibition", "in_short": "as §2"}, "Cocklebur [22]": {"system": "Cocklebur", "assay": "post-emergence herbicide test", "conditions": "Xanthium strumarium, post-emergence, 0.25 lb/A; read-out: % plant inhibition", "in_short": "as §2"}, "Wild Oats [23]": {"system": "Wild Oats", "assay": "post-emergence herbicide test", "conditions": "Avena fatua, post-emergence, 0.25 lb/A; read-out: % plant inhibition", "in_short": "as §2"}, "Green Foxtail [24]": {"system": "Green Foxtail", "assay": "post-emergence herbicide test", "conditions": "Setaria viridis, post-emergence, 0.25 lb/A; read-out: % plant inhibition", "in_short": "as §2"}, "Giant Foxtail [25]": {"system": "Giant Foxtail", "assay": "post-emergence herbicide test", "conditions": "Setaria faberi, post-emergence, 0.25 lb/A; read-out: % plant inhibition", "in_short": "as §2"}, "Common Chickweed [26]": {"system": "Common Chickweed", "assay": "post-emergence herbicide test", "conditions": "post-emergence, 0.25 lb/A; read-out: % plant inhibition", "in_short": "as §2"}, "Birdseye Speedwell [27]": {"system": "Birdseye Speedwell", "assay": "post-emergence herbicide test", "conditions": "post-emergence, 0.25 lb/A; read-out: % plant inhibition", "in_short": "as §2"}, "Barnyardgrass [28]": {"system": "Barnyardgrass", "assay": "post-emergence herbicide test", "conditions": "Echinochloa crus-galli, post-emergence, 0.25 lb/A; read-out: % plant inhibition", "in_short": "as §2"}, "Wheat [29]": {"system": "Wheat", "assay": "post-emergence herbicide test", "conditions": "Triticum aestivum, post-emergence, 0.25 lb/A; read-out: % plant inhibition", "in_short": "as §2"}, "Soybean [30]": {"system": "Soybean", "assay": "post-emergence herbicide test", "conditions": "Glycine max, post-emergence, 0.25 lb/A; read-out: % plant inhibition", "in_short": "as §2"}, "Downy Brome [31]": {"system": "Downy Brome", "assay": "post-emergence herbicide test", "conditions": "Bromus tectorum, post-emergence, 0.25 lb/A; read-out: % plant inhibition", "in_short": "as §2"}, "Bedstraw Catchweed [32]": {"system": "Bedstraw Catchweed", "assay": "post-emergence herbicide test", "conditions": "Galium aparine, post-emergence, 0.25 lb/A; read-out: % plant inhibition", "in_short": "as §2"}, "Velvetleaf [33]": {"system": "Velvetleaf", "assay": "post-emergence herbicide test", "conditions": "Abutilon theophrasti, post-emergence, 0.25 lb/A; read-out: % plant inhibition", "in_short": "as §2"}, "Corn [34]": {"system": "Corn", "assay": "post-emergence herbicide test", "conditions": "Zea mays, post-emergence, 0.25 lb/A; read-out: % plant inhibition", "in_short": "as §2"}}}
{"smiles": "CC(C)OC(=O)c1cc(-c2nn(C)c(C(F)(F)F)c2CO)c(F)cc1Cl", "note": "[Compound 14, 2-Chloro-4-fluoro-5-[4-(hydroxymethyl)-1-methyl-5-(trifluoromethyl)-1H-pyrazol-3-yl]benzoic acid, 1-methylethyl ester]", "values": [{"measurement": "inhibition at 280.212 g/ha", "setting": "Morning Glory [1]", "result": 40, "unit": "%"}, {"measurement": "inhibition at 280.212 g/ha", "setting": "Rape [2]", "result": 5, "unit": "%"}, {"measurement": "inhibition at 280.212 g/ha", "setting": "Blackgrass [3]", "result": 65, "unit": "%"}, {"measurement": "inhibition at 280.212 g/ha", "setting": "Seedling Johnsongrass [4]", "result": 97, "unit": "%"}, {"measurement": "inhibition at 280.212 g/ha", "setting": "Cocklebur [5]", "result": 15, "unit": "%"}, {"measurement": "inhibition at 280.212 g/ha", "setting": "Wild Oats [6]", "result": 50, "unit": "%"}, {"measurement": "inhibition at 280.212 g/ha", "setting": "Green Foxtail [7]", "result": 100, "unit": "%"}, {"measurement": "inhibition at 280.212 g/ha", "setting": "Giant Foxtail [8]", "result": 98, "unit": "%"}, {"measurement": "inhibition at 280.212 g/ha", "setting": "Common Chickweed [9]", "result": 98, "unit": "%"}, {"measurement": "inhibition at 280.212 g/ha", "setting": "Birdseye Speedwell [10]", "result": 98, "unit": "%"}, {"measurement": "inhibition at 280.212 g/ha", "setting": "Barnyardgrass [11]", "result": 90, "unit": "%"}, {"measurement": "inhibition at 280.212 g/ha", "setting": "Wheat [12]", "result": 2, "unit": "%"}, {"measurement": "inhibition at 280.212 g/ha", "setting": "Soybean [13]", "result": 8, "unit": "%"}, {"measurement": "inhibition at 280.212 g/ha", "setting": "Downy Brome [14]", "result": 30, "unit": "%"}, {"measurement": "inhibition at 280.212 g/ha", "setting": "Bedstraw Catchweed [15]", "result": 20, "unit": "%"}, {"measurement": "inhibition at 280.212 g/ha", "setting": "Velvetleaf [16]", "result": 60, "unit": "%"}, {"measurement": "inhibition at 280.212 g/ha", "setting": "Corn [17]", "result": 15, "unit": "%"}, {"measurement": "inhibition at 280.212 g/ha", "setting": "Morning Glory [18]", "result": 85, "unit": "%"}, {"measurement": "inhibition at 280.212 g/ha", "setting": "Rape [19]", "result": 75, "unit": "%"}, {"measurement": "inhibition at 280.212 g/ha", "setting": "Blackgrass [20]", "result": 60, "unit": "%"}, {"measurement": "inhibition at 280.212 g/ha", "setting": "Seedling Johnsongrass [21]", "result": 80, "unit": "%"}, {"measurement": "inhibition at 280.212 g/ha", "setting": "Cocklebur [22]", "result": 95, "unit": "%"}, {"measurement": "inhibition at 280.212 g/ha", "setting": "Wild Oats [23]", "result": 50, "unit": "%"}, {"measurement": "inhibition at 280.212 g/ha", "setting": "Green Foxtail [24]", "result": 65, "unit": "%"}, {"measurement": "inhibition at 280.212 g/ha", "setting": "Giant Foxtail [25]", "result": 25, "unit": "%"}, {"measurement": "inhibition at 280.212 g/ha", "setting": "Common Chickweed [26]", "result": 45, "unit": "%"}, {"measurement": "inhibition at 280.212 g/ha", "setting": "Birdseye Speedwell [27]", "result": 90, "unit": "%"}, {"measurement": "inhibition at 280.212 g/ha", "setting": "Barnyardgrass [28]", "result": 65, "unit": "%"}, {"measurement": "inhibition at 280.212 g/ha", "setting": "Wheat [29]", "result": 13, "unit": "%"}, {"measurement": "inhibition at 280.212 g/ha", "setting": "Soybean [30]", "result": 25, "unit": "%"}, {"measurement": "inhibition at 280.212 g/ha", "setting": "Downy Brome [31]", "result": 60, "unit": "%"}, {"measurement": "inhibition at 280.212 g/ha", "setting": "Bedstraw Catchweed [32]", "result": 40, "unit": "%"}, {"measurement": "inhibition at 280.212 g/ha", "setting": "Velvetleaf [33]", "result": 99, "unit": "%"}, {"measurement": "inhibition at 280.212 g/ha", "setting": "Corn [34]", "result": 10, "unit": "%"}]}
